These are literature values, as cited in US20080311196A1, “All Day Rhinitic Condition Treatment Regimen” (priority 2006, published 2008).

One series addresses histamine H1-receptor (Homo sapiens, UniProt P35367). The settings on record: E-isomer versus Z-isomer; fit in the histamine H1-receptor binding site.

Sequence of histamine H1-receptor (P35367 whole entry, species assumed): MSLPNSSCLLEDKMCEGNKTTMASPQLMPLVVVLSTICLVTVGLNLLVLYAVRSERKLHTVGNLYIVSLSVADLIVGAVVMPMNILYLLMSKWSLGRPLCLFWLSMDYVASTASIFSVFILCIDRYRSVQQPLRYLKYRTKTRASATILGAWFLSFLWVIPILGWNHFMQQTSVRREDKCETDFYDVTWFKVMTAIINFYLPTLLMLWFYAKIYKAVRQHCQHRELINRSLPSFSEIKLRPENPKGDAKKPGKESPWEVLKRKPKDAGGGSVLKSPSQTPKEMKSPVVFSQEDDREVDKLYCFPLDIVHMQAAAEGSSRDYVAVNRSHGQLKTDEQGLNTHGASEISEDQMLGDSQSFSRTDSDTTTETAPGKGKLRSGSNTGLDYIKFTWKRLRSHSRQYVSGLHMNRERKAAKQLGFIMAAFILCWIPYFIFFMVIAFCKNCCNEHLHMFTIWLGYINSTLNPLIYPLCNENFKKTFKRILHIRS

Take E-triprolidine: the “potency relative to Z-triprolidine” value on histamine H1-receptor is “E-triprolidine, for example, is 1000-fold”.
On to `CN(C)CCC(c1ccc(Cl)cc1)c1ccccn1` (stereo not shown) [chlorpheniramine], for which the “time of maximal pharmacological sedation after dosing” value (after dosing) is reported as 3 to 4 hour. In addition, for the setting “following dosing, usually not longer than”, the “persistence of sedation following dosing” value was 6 to 8 h. Further, the “duration of inhibition of the symptoms of rhinitis” value (single dose) is recorded as “more than 24 hours”.
